Data reported in patent US20260048130A1, “ALPHA-V BETA-6 (avb6) INTEGRIN LIGANDS FOR EXTRAHEPATIC DELIVERY” (Alnylam Pharmaceuticals, Inc., priority 2022, published 2026).
In the oligonucleotide strings, read from the 5' end, every base follows the letter of its sugar. An asterisk marks phosphorothioate; unmarked linkages are phosphodiester. Other units and linkages are bracketed, terminal groups are in braces. A string of capitals states the bases alone. {Q410} = αvβ6 integrin ligand conjugate, (S,R) stereochemistry, phosphorothioate-linked; {Q411} = αvβ6 integrin ligand conjugate, (R,R) stereochemistry variant; {L352} = αvβ6 integrin ligand conjugate, (S,R) stereochemistry; {L353} = αvβ6 integrin ligand conjugate, (S,S) stereochemistry; {L373Z511} = αvβ6 integrin ligand conjugate variant; {L373Z512} = αvβ6 integrin ligand conjugate variant; {L373Z513} = αvβ6 integrin ligand conjugate variant; {L354} = αvβ6 integrin ligand conjugate; {VP} = (E)-vinylphosphonate; m = 2'-O-methyl; f = 2'-fluoro

Legend:
[1] = tested on: Sod1 mRNA; experiment: Sod1 mRNA knockdown in mouse lung after intranasal administration (RT-qPCR); type: in vivo; settings: for % Sod1 Remaining: Day 10, relative to PBS
Description: Heart and quadricep powder were homogenized and lysed in 750 μL of QIAzol Lysis Reagent for 5 minutes×2 at 25 Hz using a TissueLyser. Chloroform ([…]) was thoroughly mixed with each sample and lysates were centrifugated at full speed for 15 minutes at 4° C. Total RNA was isolated from the supernatant using the RNeasy® 96 Universal Tissue Kit. Resulting RNA (1500 ng) was used for cDNA synthesis using the Applied Biosystems™ High-Capacity cDNA Reverse Transcription Kit with RNase Inhibitor. For qPCR reactions, 2 uL cDNA was used per 10 μL reaction. RT-qPCR was performed using the LightCycler® 480 Probes Master in the LightCycler® 480 Instrument system using gene specific TaqMan assays for each target mouse-specific Sod1 (ThermoFisher Scientific, Mm01344233_g1) and Gapdh (ThermoFisher Scientific, Mm99999915_g1) were used for RT-qPCR analysis. Each sample was analyzed in duplicate by RT-qPCR. Data were analyzed using the ΔΔCt method normalizing to control animals treated with 1×PBS alone.
Table 5 provides the study design used to evaluate the in vivo pharmacodynamic and/or pharmacologic activity of αvβ6 integrin targeting siRNA conjugates in mouse lung following intranasal administration.
Female mice were intranasally administered either a single 1 mg/kg or 10 mg/kg dose of the dsRNA agents conjugated to αvβ6 and at Day 10 post-dose animals were sacrificed and lung, heart, liver, and kidney tissues were collected. The level of Sod1 mRNA in the samples was determined by R^T-qPCR as described above.

[2] = molecular target: T1, recombinant human αvβ6 (Homo sapiens, UniProt P06756+P18564, DEL708-788); experiment: ELISA displacement assay (αvβ6 binding to LAP/TGF1b); settings: recombinant human αvβ6 vs coated human LAP/TGF1b
T1 construct: purchased R&D Systems 3817AV050
T1 sequence (P06756 31-992 limits assumed, stated change not applied): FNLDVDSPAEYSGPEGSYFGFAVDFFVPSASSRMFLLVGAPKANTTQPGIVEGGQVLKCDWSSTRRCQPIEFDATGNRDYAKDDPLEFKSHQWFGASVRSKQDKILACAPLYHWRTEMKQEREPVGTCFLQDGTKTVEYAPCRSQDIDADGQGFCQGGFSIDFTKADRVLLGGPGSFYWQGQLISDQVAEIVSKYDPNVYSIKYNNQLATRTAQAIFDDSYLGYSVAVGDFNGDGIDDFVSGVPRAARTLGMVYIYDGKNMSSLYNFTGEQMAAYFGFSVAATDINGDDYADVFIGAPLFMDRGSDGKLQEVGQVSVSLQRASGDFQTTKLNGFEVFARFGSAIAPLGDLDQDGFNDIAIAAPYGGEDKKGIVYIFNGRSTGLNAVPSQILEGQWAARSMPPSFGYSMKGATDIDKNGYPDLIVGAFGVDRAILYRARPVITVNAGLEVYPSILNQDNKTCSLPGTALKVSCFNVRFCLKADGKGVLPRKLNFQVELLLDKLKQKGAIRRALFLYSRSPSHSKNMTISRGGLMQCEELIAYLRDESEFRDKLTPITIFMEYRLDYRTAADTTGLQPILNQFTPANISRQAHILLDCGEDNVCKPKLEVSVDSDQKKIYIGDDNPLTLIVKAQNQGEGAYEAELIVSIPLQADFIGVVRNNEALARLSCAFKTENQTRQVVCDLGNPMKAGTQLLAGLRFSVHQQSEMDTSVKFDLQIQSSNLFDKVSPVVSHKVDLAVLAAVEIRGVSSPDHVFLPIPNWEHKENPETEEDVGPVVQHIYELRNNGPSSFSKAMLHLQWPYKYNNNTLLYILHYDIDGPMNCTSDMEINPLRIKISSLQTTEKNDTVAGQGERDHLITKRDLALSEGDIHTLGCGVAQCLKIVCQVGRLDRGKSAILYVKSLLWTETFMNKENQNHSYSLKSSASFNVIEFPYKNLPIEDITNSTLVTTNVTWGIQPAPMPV
T1 sequence (P18564 22-707 limits assumed, stated change not applied): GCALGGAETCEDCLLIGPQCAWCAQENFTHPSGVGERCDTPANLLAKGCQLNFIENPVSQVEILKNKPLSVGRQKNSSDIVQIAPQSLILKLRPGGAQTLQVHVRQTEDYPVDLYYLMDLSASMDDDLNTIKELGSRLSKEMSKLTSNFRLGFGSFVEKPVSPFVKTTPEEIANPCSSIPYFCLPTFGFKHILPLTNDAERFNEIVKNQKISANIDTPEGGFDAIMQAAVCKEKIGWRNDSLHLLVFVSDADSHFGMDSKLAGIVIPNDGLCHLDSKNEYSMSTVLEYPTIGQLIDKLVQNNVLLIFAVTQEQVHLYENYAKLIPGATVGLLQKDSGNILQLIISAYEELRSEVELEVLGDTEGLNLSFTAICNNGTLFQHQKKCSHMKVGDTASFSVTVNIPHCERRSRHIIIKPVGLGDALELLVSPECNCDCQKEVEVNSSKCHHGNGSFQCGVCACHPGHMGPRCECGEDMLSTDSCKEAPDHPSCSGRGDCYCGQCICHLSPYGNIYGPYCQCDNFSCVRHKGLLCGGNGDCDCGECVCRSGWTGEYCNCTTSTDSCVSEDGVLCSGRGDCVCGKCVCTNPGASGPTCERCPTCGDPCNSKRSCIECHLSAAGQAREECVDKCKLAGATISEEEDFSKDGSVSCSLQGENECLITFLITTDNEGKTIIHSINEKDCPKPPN
Description: ELISA plates were coated with 0.6 ug/mL recombinant human LAP/TGF1b (R&D Systems 246LP025) in carbonate buffer (pH 9.6) overnight at 4 C. Plates were washed with PBST and blocked for 1 hour at room temperature with assay buffer (20 mM Tris-HCl, 150 mM NaCl, 2 mM CaCl2, 2 mM MgCl2, 2 mM MnCl2, 0.5% BSA, pH 7.4). Serial dilutions of competitor compound in assay buffer were added to plate, as well as 1.0 ug/mL of purified recombinant human αvβ6 (R&D Systems 3817AV050), and samples were incubated for 1 hour at room temperature. Plates were washed with PBS-T, then incubated with 2.5 ug/mL of anti-integrin av primary antibody (Sigma MAB1978) for 1 hour at room temperature. Plates were washed with PBS-T, then incubated with 2.0 ug/mL of HRP-conjugated secondary antibody for 1 hour at room temperature. Samples were incubated with TMB substrate (Thermo 34024) for 15 minutes, reaction was quenched with 3 M sulfuric acid, and absorbance was measured at 450 nm. Percent binding inhibition was calculated by normalizing to a maximum value obtained from no-competitor samples and a minimum value obtained from no-competitor-no-integrin samples. EC50 values are reported in the following ranges: “A” EC50>100 nM; “B” EC50 10-100 nM; “C” EC50<10 nM.

Substance	% Sod1 Remaining ([1]; single intranasal 1 mg/kg) [%]	% Sod1 Remaining ([1]; single intranasal 10 mg/kg) [%]	EC50 [2] [µM]	Sod1 knockdown in mouse lung, comparison between conjugate designs ([1]; intranasal, matched pairs by avidity or stereochemistry)
AD-1481901.1: "3′,5′ is better than the triple (AD-1481899 vs AD-1481901 as matched pair of (S,R) stereochemistry)" (sense {Q410}*mC*mAmUmUmUmUfAmAfUfCfCmUmCmAmCmUmCmUmAmA*mA*{L352}; antisense {VP}-mU*fU*mUmAmGfAmGfUfGmAmGmGmAfUmUfAmAmAmAmUmG*mA*mG; siRNA)	47.7	35.9		
AD-1481899.1: "3′,5′ is better than the triple (AD-1481899 vs AD-1481901 as matched pair of (S,R) stereochemistry)" (sense mC*mA*mUmUmUmUfAmAfUfCfCmUmCmAmCmUmCmUmAmA*mA*{L354}; antisense {VP}-mU*fU*mUmAmGfAmGfUfGmAmGmGmAfUmUfAmAmAmAmUmG*mA*mG; siRNA)	60.0	52.4		
AD-1481902.1: "inhibition of Sod1 mRNA expression in mouse quadriceps, heart, liver, and lung 21 days after a single 2 mg/kg intravenous dose" (sense {Q411}*mC*mAmUmUmUmUfAmAfUfCfCmUmCmAmCmUmCmUmAmA*mA*{L353}; antisense {VP}-mU*fU*mUmAmGfAmGfUfGmAmGmGmAfUmUfAmAmAmAmUmG*mA*mG)	77.2	51.2		
AD-2032892: "inhibition of Sod1 mRNA expression in mouse gastrocnemius and quadriceps 21 days after a single 2 mg/kg intravenous dose of AD-2032892" (sense mU*mU*mGmGmGmCfAmAfAfGfGmUmGmGmAmAmAmUmGmA*mA*{L354}; antisense {VP}-mU*fU*mCmAmUfUmUfCfCmAmCmCmUfUmUfGmCmCmCmAmA*mG*mU)			< 0.01	
AD-2639646 (sense mU*mU*mGmGmGmCfAmAfAfGfGmUmGmGmAmAmAmUmGmA*mA*{L373Z512}; antisense {VP}-mU*fU*mCmAmUfUmUfCfCmAmCmCmUfUmUfGmCmCmCmAmA*mG*mU; siRNA)			0.01 to 0.1	
AD-2639647 (sense mU*mU*mGmGmGmCfAmAfAfGfGmUmGmGmAmAmAmUmGmA*mA*{L373Z513}; antisense {VP}-mU*fU*mCmAmUfUmUfCfCmAmCmCmUfUmUfGmCmCmCmAmA*mG*mU; siRNA)			< 0.01	
AD-2639645 (sense mU*mU*mGmGmGmCfAmAfAfGfGmUmGmGmAmAmAmUmGmA*mA*{L373Z511}; antisense {VP}-mU*fU*mCmAmUfUmUfCfCmAmCmCmUfUmUfGmCmCmCmAmA*mG*mU; siRNA)			> 0.1	
AD-1481901: "inhibition of Sod1 mRNA expression in mouse quadriceps, heart, liver, and lung 21 days after a single 2 mg/kg intravenous dose" (sense {Q410}*mC*mAmUmUmUmUfAmAfUfCfCmUmCmAmCmUmCmUmAmA*mA*{L352}; antisense {VP}-mU*fU*mUmAmGfAmGfUfGmAmGmGmAfUmUfAmAmAmAmUmG*mA*mG)				better than the triple
AD-1481904.1: dsRNA agent targeting Sod1 conjugated to αvβ6 ligand: "3′-monos (AD-1481903 (S,R) vs AD-1481904 (S,S))" (sense mC*mA*mUmUmUmUfAmAfUfCfCmUmCmAmCmUmCmUmAmA*mA*{L353}; antisense {VP}-mU*fU*mUmAmGfAmGfUfGmAmGmGmAfUmUfAmAmAmAmUmG*mA*mG)	59.2	49.8		
